# Paper PMC6112376, “Comprehensive Analyses and Prioritization of Tox21 10K Chemicals Affecting Mitochondrial Function by in-Depth Mechanistic Studies” (Environmental Health Perspectives, 2018)
# Like-named read-outs stand apart in the source and are kept apart here.
# Legend:
# [1] = test system: Caenorhabditis elegans (Bristol N2); test: C. elegans larval development and growth assay; conditions: for minimal effective concentration: Caenorhabditis elegans, read-out: LEC EXT: lowest effect concentration for extinction, a measure of nematode size
# [2] = test system: HepG2 cells; conditions: cited from earlier work
# [3] = test system: Caenorhabditis elegans strain PE255; test: In vivo C. elegans ATP status assay; conditions: for minimal effective concentration: Caenorhabditis elegans, read-out: LEC LUM: lowest effect concentration for luminescence, a measure of nematode ATP content
# [4] = test system: hNSC; test: MMP assay in human neural stem cells (hNSC); format: cell-based; conditions: Homo sapiens, Neural stem cell, 1 h, read-out: hNSC IC50 (MMP)
# [5] = test system: p53 (p53-bla HCT-116 cells); test: p53 β-lactamase reporter gene assay; format: cell-based, human; conditions: Homo sapiens; 16 h incubation; mean±SD of three experiments
# [6] = test system: rat primary hepatocytes
# [7] = test system: HepG2 cells; test: ROS-Glo hydrogen peroxide (ROS) assay; format: cell-based, human
# [8] = test system: isolated rat liver mitochondria; test: Oxygen consumption, Clark-type oxygen electrode; format: biochemical
# [9] = test system: rat primary hepatocytes; test: MMP assay in rat primary hepatocytes; conditions: Rattus norvegicus, Hepatocyte
# [10] = test system: Nrf2/ARE (ARE-bla HepG2 cells); test: ARE β-lactamase reporter gene assay; format: cell-based, human; conditions: Homo sapiens, HepG2; 16 h incubation; mean±SD of three experiments; read-out: ARE (HepG2) EC50
# [11] = test system: HeLa cells expressing YFP-Parkin; test: Parkin translocation assay; format: cell-based, human
# [12] = test system: HepG2 cells; test: Intracellular ATP content (cell viability) assay; format: cell-based, human; conditions: Homo sapiens, HepG2, 40 h
# [13] = test system: HepG2 cells; test: cells; conditions: Homo sapiens; for IC50: HepG2, 1 h
# [14] = 1 h, read-out: Rat hepatocytes IC50 (MMP)
# [15] = read-out: ATP (HepG2, galactose) IC50
# [16] = read-out: ATP (HepG2, glucose) IC50
# [17] = read-out: HepG2 IC50 Galactose (MMP)
# [18] = read-out: HepG2 IC50 Glucose (MMP)
structure (smiles),measurement,setting,value
"N#CC(c1ccc(Cl)cc1)c1c(Cl)cc(-n2ncc(=O)[nH]c2=O)cc1Cl (centres unmarked) [Diclazuril, reference compound]","LEC (lowest effect concentration), larval growth assay",[1]; 48 h exposure,< 10 µM
same,minimal effective concentration,[1],2.5 µM
same,MMP assays efficacy (%) qHTS-HepG2,[2],-108±7%
same,IC50,[2]; read-out: MMP assays IC50 (µM) qHTS-HepG2,11.2 ± 2.79 µM
same,"LEC (lowest effect concentration), ATP assay",[3]; 24 h exposure,< 10 µM
same,minimal effective concentration,[3],5 µM
same,IC50,[4],20.6 µM
same,EC50,[5],27.9 ± 6.48 µM
same,MMP assays efficacy (%) Rat Hepatocytes,[6],-114±26%
same,Rat hepatocytes (efficacy) (MMP),[6],11.5±5.18 ( −72.8±2.37 ) %
same,ROS (HepG2) EC50,[7],Inactive
same,"I-ADP, % of control (O2 consumption rate)","[8]; 0.16 µM, glutamate/malate driven state 3 respiration, isolated rat liver mitochondria",96 (22.7) % of control
same,"I-sub, % of control (O2 consumption rate)","[8]; 0.16 µM, glutamate/malate driven state 4 respiration, isolated rat liver mitochondria",174 (24.7) % of control
same,"II-ADP, % of control (O2 consumption rate)","[8]; 0.16 µM, succinate-driven state 3 respiration, isolated rat liver mitochondria",99 (32.7) % of control
same,"II-sub, % of control (O2 consumption rate)","[8]; 0.16 µM, succinate-driven state 4 respiration, isolated rat liver mitochondria",168 (35.8) % of control
same,"I-ADP, % of control (O2 consumption rate)","[8]; 0.8 µM, glutamate/malate driven state 3 respiration, isolated rat liver mitochondria",95 (41.4) % of control
same,"I-sub, % of control (O2 consumption rate)","[8]; 0.8 µM, glutamate/malate driven state 4 respiration, isolated rat liver mitochondria",290 (38.0) % of control
same,"II-ADP, % of control (O2 consumption rate)","[8]; 0.8 µM, succinate-driven state 3 respiration, isolated rat liver mitochondria",88 (59.6) % of control
same,"II-sub, % of control (O2 consumption rate)","[8]; 0.8 µM, succinate-driven state 4 respiration, isolated rat liver mitochondria",263 (54.9) % of control
same,"I-ADP, % of control (O2 consumption rate)","[8]; 4 µM, glutamate/malate driven state 3 respiration, isolated rat liver mitochondria",45 (41.9) % of control
same,"I-sub, % of control (O2 consumption rate)","[8]; 4 µM, glutamate/malate driven state 4 respiration, isolated rat liver mitochondria",115 (22.8) % of control
same,"II-ADP, % of control (O2 consumption rate)","[8]; 4 µM, succinate-driven state 3 respiration, isolated rat liver mitochondria",55 (67.2) % of control
same,"II-sub, % of control (O2 consumption rate)","[8]; 4 µM, succinate-driven state 4 respiration, isolated rat liver mitochondria",103 (35.2) % of control
same,"I-ADP, % of control (O2 consumption rate)","[8]; 20 µM, glutamate/malate driven state 3 respiration, isolated rat liver mitochondria",95 (41.4) % of control
same,"I-sub, % of control (O2 consumption rate)","[8]; 20 µM, glutamate/malate driven state 4 respiration, isolated rat liver mitochondria",124 (16.3) % of control
same,"II-ADP, % of control (O2 consumption rate)","[8]; 20 µM, succinate-driven state 3 respiration, isolated rat liver mitochondria",101 (68.5) % of control
same,"II-sub, % of control (O2 consumption rate)","[8]; 20 µM, succinate-driven state 4 respiration, isolated rat liver mitochondria",127 (26.6) % of control
same,"I-ADP, % of control (O2 consumption rate)","[8]; 100 µM, glutamate/malate driven state 3 respiration, isolated rat liver mitochondria",94 (41.1) % of control
same,"I-sub, % of control (O2 consumption rate)","[8]; 100 µM, glutamate/malate driven state 4 respiration, isolated rat liver mitochondria",115 (15.1) % of control
same,"II-ADP, % of control (O2 consumption rate)","[8]; 100 µM, succinate-driven state 3 respiration, isolated rat liver mitochondria",101 (68.3) % of control
same,"II-sub, % of control (O2 consumption rate)","[8]; 100 µM, succinate-driven state 4 respiration, isolated rat liver mitochondria",114 (23.8) % of control
same,IC50,[9]; [14],11.5 µM
same,IC50,[9]; read-out: MMP assays IC50 (µM) Rat Hepatocytes,5.7 ± 1.94 µM
same,EC50,[10],10.9 µM
same,Parkin recruitment,[11],Inactive
same,IC50,[12]; [15],43.4 µM
same,IC50,[12]; [16],50.4 µM
same,IC50,[13]; [17],46.3 µM
same,IC50,[13]; [18],38.3 µM
same,Emax,"[13]; HepG2, read-out: MMP assays efficacy (%) HepG2",99%
CCC(C)c1cc([N+](=O)[O-])cc([N+](=O)[O-])c1O (centres unmarked) [Dinoseb],EXT: mean difference in nematode size relative to plate controls,[1]; 0.5 µM,-0.01247
same,EXT: mean difference in nematode size relative to plate controls,[1]; 1 µM,-0.02122
same,EXT: mean difference in nematode size relative to plate controls,[1]; 5 µM,-0.00308
same,EXT: mean difference in nematode size relative to plate controls,[1]; 10 µM,0.1196
same,EXT: mean difference in nematode size relative to plate controls,[1]; 25 µM,0.1256
same,EXT: mean difference in nematode size relative to plate controls,[1]; 50 µM,0.4169
same,EXT: mean difference in nematode size relative to plate controls,[1]; 75 µM,0.7162
same,EXT: mean difference in nematode size relative to plate controls,[1]; 100 µM,0.9301
same,minimal effective concentration,[1],50 µM
same,LUM: mean difference in luminescence (ATP content) relative to plate controls,[3]; 0.5 µM,0.1603
same,LUM: mean difference in luminescence (ATP content) relative to plate controls,[3]; 1 µM,0.2694
same,LUM: mean difference in luminescence (ATP content) relative to plate controls,[3]; 5 µM,0.2298
same,LUM: mean difference in luminescence (ATP content) relative to plate controls,[3]; 10 µM,0.4579
same,LUM: mean difference in luminescence (ATP content) relative to plate controls,[3]; 25 µM,0.5745
same,LUM: mean difference in luminescence (ATP content) relative to plate controls,[3]; 50 µM,0.9424
same,LUM: mean difference in luminescence (ATP content) relative to plate controls,[3]; 75 µM,1.122
same,LUM: mean difference in luminescence (ATP content) relative to plate controls,[3]; 100 µM,1.3353
same,minimal effective concentration,[3],50 µM
same,IC50,[4],22.3 µM
same,EC50,[5],2.63 ± 1.78 µM
same,Rat hepatocytes (efficacy) (MMP),[6],4.50±0.81 ( −130±39.0 ) %
same,EC50,"[7]; Homo sapiens, HepG2, 2 h, read-out: ROS (HepG2) EC50",27.6 µM
same,Potential Mechanism,[8],"Uncoupler at low concentrations (0.032-0.16 µM), and Uncoupler + inhibitor at high concentrations (0.8-100 µM)"
same,"I-ADP, % of control (O2 consumption rate)",[8]; 0.0064 µM,89 (38.7) % of control
same,"I-sub, % of control (O2 consumption rate)",[8]; 0.0064 µM,118 (15.5) % of control
same,"II-ADP, % of control (O2 consumption rate)",[8]; 0.0064 µM,98 (66.3) % of control
same,"II-sub, % of control (O2 consumption rate)",[8]; 0.0064 µM,122 (25.5) % of control
same,"I-ADP, % of control (O2 consumption rate)",[8]; 0.032 µM,97 (42.2) % of control
same,"I-sub, % of control (O2 consumption rate)",[8]; 0.032 µM,131 (17.2) % of control
same,"II-ADP, % of control (O2 consumption rate)",[8]; 0.032 µM,92 (62.6) % of control
same,"II-sub, % of control (O2 consumption rate)",[8]; 0.032 µM,137 (28.6) % of control
same,"I-ADP, % of control (O2 consumption rate)",[8]; 0.16 µM,106 (46.2) % of control
same,"I-sub, % of control (O2 consumption rate)",[8]; 0.16 µM,181 (23.7) % of control
same,"II-ADP, % of control (O2 consumption rate)",[8]; 0.16 µM,98 (66.1) % of control
same,"II-sub, % of control (O2 consumption rate)",[8]; 0.16 µM,199 (41.5) % of control
same,"I-ADP, % of control (O2 consumption rate)",[8]; 0.8 µM,138 (59.9) % of control
same,"I-sub, % of control (O2 consumption rate)",[8]; 0.8 µM,423 (55.4) % of control
same,"II-ADP, % of control (O2 consumption rate)",[8]; 0.8 µM,59 (40.0) % of control
same,"II-sub, % of control (O2 consumption rate)",[8]; 0.8 µM,193 (40.3) % of control
same,"I-ADP, % of control (O2 consumption rate)",[8]; 4 µM,111 (48.1) % of control
same,"I-sub, % of control (O2 consumption rate)",[8]; 4 µM,347 (45.5) % of control
same,"II-ADP, % of control (O2 consumption rate)",[8]; 4 µM,28 (19.1) % of control
same,"II-sub, % of control (O2 consumption rate)",[8]; 4 µM,96 (20.0) % of control
same,"I-ADP, % of control (O2 consumption rate)",[8]; 20 µM,70 (30.6) % of control
same,"I-sub, % of control (O2 consumption rate)",[8]; 20 µM,242 (31.7) % of control
same,"II-ADP, % of control (O2 consumption rate)",[8]; 20 µM,18 (12.1) % of control
same,"II-sub, % of control (O2 consumption rate)",[8]; 20 µM,64 (13.3) % of control
same,"I-ADP, % of control (O2 consumption rate)",[8]; 100 µM,13 (6.5) % of control
same,"I-sub, % of control (O2 consumption rate)",[8]; 100 µM,33 (7.1) % of control
same,"II-ADP, % of control (O2 consumption rate)",[8]; 100 µM,12 (6.9) % of control
same,"II-sub, % of control (O2 consumption rate)",[8]; 100 µM,22 (7.8) % of control
same,IC50,[9]; [14],4.5 µM
same,EC50,[10],0.76 ± 0.13 µM
same,Parkin recruitment,[11],Active
same,IC50,[12]; [15],32.6 µM
same,IC50,[12]; [16],36.8 µM
same,IC50,[13]; [17],16.5 µM
same,IC50,[13]; [18],12.4 µM
